Source: ChEMBL document CHEMBL1909046, “DrugMatrix in vitro pharmacology data”

Columns and labels:
[1] = DRUGMATRIX: Sodium/nucleoside co-transporter radioligand binding (ligand: nitrobenzylthioinosine); type: cell membranes, Cavia porcellus, Dunkin-Hartley, Cerebral cortex, Membrane; conditions: Not Active = under 50% inhibition at 10 µM
[2] = target: T1, Alpha-2A adrenergic receptor (Homo sapiens, UniProt P08913); type: cell membranes, Sf9, Membrane; conditions: for Ki: read-out: Ki; on all read-outs here: in other assays of this panel Not Active means under 50% inhibition at 10 µM
T1 sequence (P08913 whole entry): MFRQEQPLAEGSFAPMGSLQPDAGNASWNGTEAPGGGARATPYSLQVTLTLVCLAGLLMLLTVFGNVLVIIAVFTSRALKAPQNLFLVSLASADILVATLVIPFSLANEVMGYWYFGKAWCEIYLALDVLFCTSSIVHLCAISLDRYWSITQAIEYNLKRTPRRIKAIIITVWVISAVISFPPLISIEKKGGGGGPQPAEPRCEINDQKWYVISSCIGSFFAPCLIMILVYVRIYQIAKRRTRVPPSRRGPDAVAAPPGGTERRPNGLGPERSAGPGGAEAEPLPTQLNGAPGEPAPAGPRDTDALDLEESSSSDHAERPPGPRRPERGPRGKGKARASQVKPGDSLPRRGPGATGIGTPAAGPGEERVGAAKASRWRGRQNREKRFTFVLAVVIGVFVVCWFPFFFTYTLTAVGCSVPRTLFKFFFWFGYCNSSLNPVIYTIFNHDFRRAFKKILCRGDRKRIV

[3] = target: Beta-3 adrenergic receptor (Homo sapiens, UniProt P13945); assay: DRUGMATRIX: Adrenergic beta3 radioligand binding (ligand: [125I] Cyanopindolol); type: cell membranes, HEK293, Membrane; conditions: Not Active = under 50% inhibition at 10 µM; for Ki: read-out: Ki
Chain of Beta-3 adrenergic receptor (P13945 whole entry): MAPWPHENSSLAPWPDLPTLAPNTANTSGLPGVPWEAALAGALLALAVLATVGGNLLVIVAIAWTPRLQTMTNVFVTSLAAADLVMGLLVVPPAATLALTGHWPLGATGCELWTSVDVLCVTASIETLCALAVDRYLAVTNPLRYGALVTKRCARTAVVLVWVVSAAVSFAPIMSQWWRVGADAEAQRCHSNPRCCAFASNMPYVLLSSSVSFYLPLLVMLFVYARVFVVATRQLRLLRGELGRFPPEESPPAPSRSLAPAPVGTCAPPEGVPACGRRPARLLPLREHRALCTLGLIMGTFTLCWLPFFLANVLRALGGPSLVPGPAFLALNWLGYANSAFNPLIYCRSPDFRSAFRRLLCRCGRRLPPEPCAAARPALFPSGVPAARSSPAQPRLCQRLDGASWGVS

Histamine H2 receptor = Histamine H2 receptor (Homo sapiens, UniProt P25021); type: cell membranes, CHO-K1, Membrane; further: in other assays of this panel Not Active means under 50% inhibition at 10 µM
Chain of Histamine H2 receptor (P25021 whole entry): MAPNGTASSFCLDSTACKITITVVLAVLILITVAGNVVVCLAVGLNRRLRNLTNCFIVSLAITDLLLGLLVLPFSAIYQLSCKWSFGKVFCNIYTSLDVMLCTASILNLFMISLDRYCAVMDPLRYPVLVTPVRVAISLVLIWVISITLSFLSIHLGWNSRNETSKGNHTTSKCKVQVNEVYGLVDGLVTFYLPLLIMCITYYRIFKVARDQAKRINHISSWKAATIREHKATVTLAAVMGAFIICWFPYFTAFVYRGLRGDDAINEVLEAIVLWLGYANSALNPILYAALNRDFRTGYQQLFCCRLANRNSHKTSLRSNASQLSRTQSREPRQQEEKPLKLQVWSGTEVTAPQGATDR

Acetylcholinesterase = Acetylcholinesterase (Homo sapiens, UniProt P22303); assay: DRUGMATRIX: Acetylcholinesterase enzyme inhibition (substrate: acetylthiocholine); type: cell-based, HEK293; conditions: Not Active = under 50% inhibition at 10 µM
Chain of Acetylcholinesterase (P22303 whole entry): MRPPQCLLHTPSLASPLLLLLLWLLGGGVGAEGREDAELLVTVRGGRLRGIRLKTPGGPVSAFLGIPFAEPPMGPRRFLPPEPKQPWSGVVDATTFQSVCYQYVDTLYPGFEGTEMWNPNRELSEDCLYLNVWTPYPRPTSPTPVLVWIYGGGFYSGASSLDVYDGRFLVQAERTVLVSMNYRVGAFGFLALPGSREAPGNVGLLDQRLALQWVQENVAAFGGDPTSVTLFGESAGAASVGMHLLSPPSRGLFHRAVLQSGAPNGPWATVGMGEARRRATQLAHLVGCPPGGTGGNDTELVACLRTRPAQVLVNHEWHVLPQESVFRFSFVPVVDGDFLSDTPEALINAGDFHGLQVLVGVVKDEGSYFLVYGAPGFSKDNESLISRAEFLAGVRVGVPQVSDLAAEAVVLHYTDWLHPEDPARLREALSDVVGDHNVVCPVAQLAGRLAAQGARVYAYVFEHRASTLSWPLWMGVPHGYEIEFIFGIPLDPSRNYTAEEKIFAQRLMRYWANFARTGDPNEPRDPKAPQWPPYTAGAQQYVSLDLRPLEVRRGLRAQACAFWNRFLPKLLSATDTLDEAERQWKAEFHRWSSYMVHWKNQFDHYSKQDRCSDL

Estrogen receptor beta = Estrogen receptor beta (Homo sapiens, UniProt Q92731); conditions: sf9; further: in other assays of this panel Not Active means under 50% inhibition at 10 µM
Chain of Estrogen receptor beta (Q92731 whole entry): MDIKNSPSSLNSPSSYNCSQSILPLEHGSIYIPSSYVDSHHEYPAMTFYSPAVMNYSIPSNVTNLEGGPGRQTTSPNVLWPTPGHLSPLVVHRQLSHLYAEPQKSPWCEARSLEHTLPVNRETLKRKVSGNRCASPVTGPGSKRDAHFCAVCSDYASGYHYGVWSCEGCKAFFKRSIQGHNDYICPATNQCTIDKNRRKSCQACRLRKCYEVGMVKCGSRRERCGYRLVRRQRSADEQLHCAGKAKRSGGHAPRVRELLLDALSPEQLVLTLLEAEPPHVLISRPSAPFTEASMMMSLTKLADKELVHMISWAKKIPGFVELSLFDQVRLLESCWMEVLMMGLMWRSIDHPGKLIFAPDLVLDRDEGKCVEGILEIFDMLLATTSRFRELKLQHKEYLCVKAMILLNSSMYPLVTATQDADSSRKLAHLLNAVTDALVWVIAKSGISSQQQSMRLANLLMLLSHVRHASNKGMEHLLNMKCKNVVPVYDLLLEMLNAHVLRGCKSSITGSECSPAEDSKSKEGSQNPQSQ

SMILES	IC50 [1]	Ki [1]	IC50 ([2]; sf9)	IC50 ([3]; hek293)	IC50 (Histamine H2 receptor; cho-k1)	IC50 (Acetylcholinesterase; hek293)	IC50 (Estrogen receptor beta)	IC50 ([3]; read-out: IC50)	Ki [3]	IC50 (Acetylcholinesterase; read-out: IC50)	IC50 ([2]; read-out: IC50)	Ki [2]	IC50 (Histamine H2 receptor; read-out: IC50)	Ki (Histamine H2 receptor; read-out: Ki)
Cc1c(C)c2c(c(C)c1O)CCC(C)(CN1CCN(c3cc(N4CCCC4)nc(N4CCCC4)n3)CC1)O2 (stereo not drawn)	Not Active	Not Active	Not Active	Not Active	Not Active	Not Active	Not Active							
COc1ccc(CCN(C)CCCC(C#N)(c2ccc(OC)c(OC)c2)C(C)C)cc1OC (stereo not drawn)	Not Active	Not Active		Not Active		Not Active	Not Active							
CC(C)Cc1ccc([C@@H](C)C(=O)O)cc1 [(R)-IBUPROPHEN]	Not Active	Not Active	Not Active	Not Active	Not Active	Not Active	Not Active							
CN(C)CCOC(c1ccccc1)c1ccccc1 [DIPHENHYDRAMINE]			Not Active	Not Active	Not Active	Not Active	Not Active							
Clc1ccc(COC(Cn2ccnc2)c2ccc(Cl)cc2Cl)cc1 (stereo not drawn) [ECONAZOLE]							Not Active	6150 nM	4610 nM	13700 nM				
CCN(CC)CCOc1ccc(/C(=C(/Cl)c2ccccc2)c2ccccc2)cc1 [ENCLOMIPHENE]					Not Active	Not Active	Not Active	5670 nM	4250 nM					
Fc1ccc(C(c2ccc(F)cc2)N2CCN(C/C=C/c3ccccc3)CC2)cc1 [FLUNARIZINE]				Not Active	Not Active	Not Active	Not Active				581 nM	218 nM		
CNCCC(Oc1ccc(C(F)(F)F)cc1)c1ccccc1 (stereo not drawn) [FLUOXETINE]			Not Active	Not Active	Not Active	Not Active	Not Active							
Cc1ccc(NC(=O)c2ccc(CN3CCN(C)CC3)cc2)cc1Nc1nccc(-c2cccnc2)n1 [IMATINIB]			Not Active	Not Active		Not Active	Not Active						1960 nM	1930 nM
CC(C)Oc1ccc2c(=O)c(-c3ccccc3)coc2c1 [IPRIFLAVONE]	Not Active	Not Active	Not Active	Not Active	Not Active	Not Active								
CC(C)NCC(O)c1ccc(O)c(O)c1 (stereo not drawn) [ISOPROTERENOL]	Not Active	Not Active	Not Active	Not Active	Not Active	Not Active	Not Active							
CNC1(c2ccccc2Cl)CCCCC1=O (stereo not drawn) [KETAMINE]	Not Active	Not Active	Not Active	Not Active	Not Active	Not Active	Not Active							
N#Cc1ccc(C(c2ccc(C#N)cc2)n2cncn2)cc1 [LETROZOLE]	Not Active	Not Active	Not Active	Not Active	Not Active	Not Active	Not Active							
CCN1CCC[C@H]1CNC(=O)c1cc(S(N)(=O)=O)ccc1OC [LEVOSULPIRIDE]	Not Active	Not Active	Not Active	Not Active	Not Active	Not Active	Not Active							
CCN(CC)CC(=O)Nc1c(C)cccc1C [LIDOCAINE]	Not Active	Not Active	Not Active	Not Active	Not Active	Not Active	Not Active							
O=C1Nc2ccc(Cl)cc2C(c2ccccc2Cl)=NC1O (stereo not drawn) [LORAZEPAM]	Not Active	Not Active	Not Active	Not Active	Not Active	Not Active	Not Active							
CO[C@@H]1[C@@H](OC)[C@H](C)[C@@](O)(CC(=O)O)O[C@H]1[C@H](C)[C@H]1O[C@@]2(CC[C@@](C)([C@H]3CC[C@@](C)([C@@H]4O[C@@H]([C@H]5O[C@](C)(O)[C@H](C)C[C@@H]5C)C[C@@H]4O[C@@H]4C[C@H](OC)[C@@H](OC)[C@H](C)O4)O3)O2)C[C@H](O)[C@H]1C [MADURAMICIN ACID]	Not Active	Not Active		Not Active	Not Active	Not Active					180 nM	67 nM		
COc1c2occc2cc2ccc(=O)oc12 [METHOXSALEN]	Not Active	Not Active	Not Active	Not Active	Not Active	Not Active	Not Active							
C[C@H]1C[C@@H]2[C@H]([C@@H](O)C[C@@]3(C)[C@H]2CC[C@]3(O)C(=O)CO)[C@@]2(C)C=CC(=O)C=C12 [METHYLPREDNISOLONE]	Not Active	Not Active	Not Active	Not Active	Not Active	Not Active								
Cc1cccc(C)c1OCC(C)N (stereo not drawn) [MEXILETINE]	Not Active	Not Active	Not Active	Not Active	Not Active	Not Active								
Nc1cc(N2CCCCC2)nc(N)[n+]1[O-] [MINOXIDIL]	Not Active	Not Active	Not Active	Not Active	Not Active	Not Active	Not Active							
O=C(Oc1ccccc1C(=O)O)c1ccccc1O [SALSALATE]	Not Active	Not Active	Not Active	Not Active	Not Active	Not Active								
O=C(O)c1cn(-c2ccc(F)cc2)c2cc(N3CCNCC3)c(F)cc2c1=O [SARAFLOXACIN]	Not Active	Not Active	Not Active	Not Active	Not Active	Not Active								
CN[C@H]1CC[C@@H](c2ccc(Cl)c(Cl)c2)c2ccccc21 [SERTRALINE]				Not Active	Not Active	Not Active	Not Active							
O.O.O.O.O.O.[Cl-].[Cl-].[Sr+2] [STRONTIUM CHLORIDE HEXAHYDRATE]	Not Active	Not Active	Not Active	Not Active	Not Active	Not Active								
O=C1C(CC[S+]([O-])c2ccccc2)C(=O)N(c2ccccc2)N1c1ccccc1 (stereo not drawn) [SULFINPYRAZONE]	Not Active	Not Active	Not Active	Not Active	Not Active	Not Active								
CCCCNc1ccc(C(=O)OCCN(C)C)cc1 [TETRACAINE]	Not Active	Not Active	Not Active	Not Active	Not Active	Not Active								
Cn1c(=O)c2nc[nH]c2n(C)c1=O.O [THEOPHYLLINE]	Not Active	Not Active	Not Active	Not Active	Not Active	Not Active								
CS(=O)(=O)c1ccc([C@@H](O)[C@@H](CO)NC(=O)C(Cl)Cl)cc1 [THIAMPHENICOL]	Not Active	Not Active	Not Active	Not Active	Not Active	Not Active								
Clc1ccccc1CN1CCc2sccc2C1 [TICLOPIDINE]	Not Active	Not Active		Not Active	Not Active	Not Active	Not Active							
